Data taken from ChEMBL document CHEMBL1140823, “Pyrazolopyridines with potent activity against herpesviruses: effects of C5 substituents on antiviral activity” (Bioorg Med Chem Lett, 2008).

Key:
Human alphaherpesvirus 1 = experiment: Antiviral activity against HSV1 SC16 in african green monkey Vero cells; assay type: functional, organism-based; settings: Human alphaherpesvirus 1, SC16, Vero
[1] = Cytotoxicity against african green monkey Vero cells; assay type: cell-based; settings: chlorocebus sabaeus

Structure (SMILES)	IC50 (Human alphaherpesvirus 1) [nM]	CC50 [1] [nM]
COc1ccc(-c2nn3c(SC(C)C)cc(NC4CCCC4)cc3c2-c2ccnc(NC3CCCC3)n2)cc1	210	> 40000
Fc1ccc(-c2nn3c(NC4CC4)cc(Cl)cc3c2-c2ccnc(NC3CCCC3)n2)cc1	330	> 40000
COc1ccn2nc(-c3ccc(F)cc3)c(-c3ccnc(NC4CCCC4)n3)c2c1	> 36000	> 36000
Fc1ccc(-c2nn3ccc(Cl)cc3c2-c2ccnc(NC3CCCC3)n2)cc1	> 5000	> 40000
CCSc1cc(NC2CCCC2)cc2c(-c3ccnc(NC4CCCC4)n3)c(-c3ccc(F)cc3)nn12	70	> 40000
Fc1ccc(-c2nn3c(N4CCOCC4)cc(Cl)cc3c2-c2ccnc(NC3CCCC3)n2)cc1	180	> 40000
COc1ccc(-c2nn3c(NC4CCCC4)cc(Cl)cc3c2-c2ccnc(NC3CCCC3)n2)cc1	220	> 40000
CN(C)c1cc(Cl)cc2c(-c3ccnc(NC4CCCC4)n3)c(-c3ccc(F)cc3)nn12	380	> 40000
CSc1cc(NC2CCCC2)cc2c(-c3ccnc(NC4CCCC4)n3)c(-c3ccc(F)cc3)nn12	170	> 40000
COc1ccc(-c2nn3ccc(NC(C)C)cc3c2-c2ccnc(NC3CCCC3)n2)cc1	920	> 40000
CC(C)Nc1ccn2nc(-c3ccc(F)cc3)c(-c3ccnc(NC4CCCC4)n3)c2c1	2730	> 40000
Fc1ccc(-c2nn3c(NC4CCCC4)cccc3c2-c2ccnc(NC3CCCC3)n2)cc1	260	> 160000
CC(C)Oc1cc(NC2CCCC2)n2nc(-c3ccc(F)cc3)c(-c3ccnc(NC4CCCC4)n3)c2c1	70	> 40000
Fc1ccc(-c2nn3ccc(N4CCOCC4)cc3c2-c2ccnc(NC3CCCC3)n2)cc1	3630	34000
COc1cc(NC2CCCC2)n2nc(-c3ccc(F)cc3)c(-c3ccnc(NC4CCCC4)n3)c2c1	130	> 40000
COc1ccc(-c2nn3c(NC4CC4)cc(Cl)cc3c2-c2ccnc(NC3CCCC3)n2)cc1	340	> 40000
Fc1ccc(-c2nn3c(Cl)cc(NC4CCCC4)cc3c2-c2ccnc(NC3CCCC3)n2)cc1	1360	> 40000
Fc1ccc(-c2nn3ccc(NC4CCCC4)cc3c2-c2ccnc(NC3CCCC3)n2)cc1	530	18000
CC(C)COc1ccc(-c2nn3ccc(NC4CCCC4)cc3c2-c2ccnc(NC3CCCC3)n2)cc1	560	27000
Fc1ccc(-c2nn3c(NC4CCCC4)cc(OCC4CC4)cc3c2-c2ccnc(NC3CCCC3)n2)cc1	170	> 40000
Fc1ccc(-c2nn3c(NC4CCCC4)cc(Cl)cc3c2-c2ccnc(NC3CCCC3)n2)cc1	330	> 40000
COc1ccc(-c2nn3c(Cl)cc(Cl)cc3c2-c2ccnc(NC3CCCC3)n2)cc1	5300	> 40000

Structure (SMILES)	IC50 (Human alphaherpesvirus 1) [nM]	CC50 [1] [nM]
CC(C)Nc1cc(NC(C)C)n2nc(-c3ccc(F)cc3)c(-c3ccnc(NC4CCCC4)n3)c2c1	550	> 40000
COCCOc1cc(NC2CCCC2)n2nc(-c3ccc(F)cc3)c(-c3ccnc(NC4CCCC4)n3)c2c1	320	> 40000
Fc1ccc(-c2nn3c(N4CCCCC4)cc(Cl)cc3c2-c2ccnc(NC3CCCC3)n2)cc1	150	> 40000
Fc1ccc(-c2nn3ccc(N4CCCC4)cc3c2-c2ccnc(NC3CCCC3)n2)cc1	1350	> 40000
c1cc(NC2CCCC2)n2nc(-c3ccc(OCC4CC4)cc3)c(-c3ccnc(NC4CCCC4)n3)c2c1	170	> 40000
COCCOc1cc(NC2CCCC2)cc2c(-c3ccnc(NC4CCCC4)n3)c(-c3ccc(F)cc3)nn12	80	32500
COc1ccc(-c2nn3c(SC)cc(NC4CCCC4)cc3c2-c2ccnc(NC3CCCC3)n2)cc1	220	> 40000
Fc1ccc(-c2nn3c(Cl)cc(Cl)cc3c2-c2ccnc(NC3CCCC3)n2)cc1	7000	> 40000
COc1ccc(-c2nn3ccc(Cl)cc3c2-c2ccnc(NC3CCCC3)n2)cc1	4270	> 40000
COc1ccc(-c2nn3ccc(NC4CCCC4)cc3c2-c2ccnc(NC3CCCC3)n2)cc1	210	12300
COc1ccc(-c2nn3c(NC4CCCC4)cccc3c2-c2ccnc(NC3CCCC3)n2)cc1	220	> 100000
Fc1ccc(-c2nn3c(NC4CCCC4)cc(NC4CCCC4)cc3c2-c2ccnc(NC3CCCC3)n2)cc1	240	> 40000
Nc1ccn2nc(-c3ccc(F)cc3)c(-c3ccnc(NC4CCCC4)n3)c2c1	5070	20000
COc1ccc(-c2nn3c(Sc4ccccc4)cc(NC4CCCC4)cc3c2-c2ccnc(NC3CCCC3)n2)cc1	1800	> 40000
CC(C)Nc1cc(Cl)cc2c(-c3ccnc(NC4CCCC4)n3)c(-c3ccc(F)cc3)nn12	1500	> 40000
COCCNc1ccn2nc(-c3ccc(F)cc3)c(-c3ccnc(NC4CCCC4)n3)c2c1	830	> 40000
CCOc1cc(NC2CCCC2)cc2c(-c3ccnc(NC4CCCC4)n3)c(-c3ccc(F)cc3)nn12	160	20600
Nc1nc2c(ncn2COCCO)c(=O)[nH]1 [ACYCLOVIR]	390	> 200000
CC(C)Sc1cc(NC2CCCC2)cc2c(-c3ccnc(NC4CCCC4)n3)c(-c3ccc(F)cc3)nn12	370	> 40000
c1cc(-c2c(-c3ccc(OCC4CC4)cc3)nn3ccc(NC4CCCC4)cc23)nc(NC2CCCC2)n1	330	> 40000
CCSc1cc(NC2CCCC2)cc2c(-c3ccnc(NC4CCCC4)n3)c(-c3ccc(OC)cc3)nn12	40	> 40000
